For the test, the target named is T1, ENaC (Epithelial Sodium Channel) (Mus musculus, UniProt Q61180+Q9WU38+Q9WU39).
T1 construct: Mouse kidney M-1 cells were cultivated in DMEM; endogenous in cells; host or cells: Mouse kidney M-1 cells (dexamethasone-treated, on transwell filters)
T1 sequence (Q61180 1-699): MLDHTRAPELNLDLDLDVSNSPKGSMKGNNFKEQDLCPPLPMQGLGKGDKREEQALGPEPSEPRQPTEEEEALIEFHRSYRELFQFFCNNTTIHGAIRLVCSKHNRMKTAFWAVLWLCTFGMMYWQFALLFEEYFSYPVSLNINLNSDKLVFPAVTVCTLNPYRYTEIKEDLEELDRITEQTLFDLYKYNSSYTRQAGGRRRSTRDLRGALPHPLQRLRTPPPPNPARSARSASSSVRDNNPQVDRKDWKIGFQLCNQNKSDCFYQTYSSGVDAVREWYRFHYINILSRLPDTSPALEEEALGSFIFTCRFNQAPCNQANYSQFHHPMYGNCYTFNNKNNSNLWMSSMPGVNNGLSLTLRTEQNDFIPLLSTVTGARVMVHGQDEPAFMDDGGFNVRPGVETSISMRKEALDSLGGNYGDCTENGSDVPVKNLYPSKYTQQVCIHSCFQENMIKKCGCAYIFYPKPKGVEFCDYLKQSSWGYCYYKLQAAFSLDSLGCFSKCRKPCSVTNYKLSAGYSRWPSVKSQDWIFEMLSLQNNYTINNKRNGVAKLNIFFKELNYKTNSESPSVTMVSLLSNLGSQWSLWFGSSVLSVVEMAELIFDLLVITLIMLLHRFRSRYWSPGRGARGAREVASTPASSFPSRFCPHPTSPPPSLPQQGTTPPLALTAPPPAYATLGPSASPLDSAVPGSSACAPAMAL
T1 sequence (Q9WU38 1-638): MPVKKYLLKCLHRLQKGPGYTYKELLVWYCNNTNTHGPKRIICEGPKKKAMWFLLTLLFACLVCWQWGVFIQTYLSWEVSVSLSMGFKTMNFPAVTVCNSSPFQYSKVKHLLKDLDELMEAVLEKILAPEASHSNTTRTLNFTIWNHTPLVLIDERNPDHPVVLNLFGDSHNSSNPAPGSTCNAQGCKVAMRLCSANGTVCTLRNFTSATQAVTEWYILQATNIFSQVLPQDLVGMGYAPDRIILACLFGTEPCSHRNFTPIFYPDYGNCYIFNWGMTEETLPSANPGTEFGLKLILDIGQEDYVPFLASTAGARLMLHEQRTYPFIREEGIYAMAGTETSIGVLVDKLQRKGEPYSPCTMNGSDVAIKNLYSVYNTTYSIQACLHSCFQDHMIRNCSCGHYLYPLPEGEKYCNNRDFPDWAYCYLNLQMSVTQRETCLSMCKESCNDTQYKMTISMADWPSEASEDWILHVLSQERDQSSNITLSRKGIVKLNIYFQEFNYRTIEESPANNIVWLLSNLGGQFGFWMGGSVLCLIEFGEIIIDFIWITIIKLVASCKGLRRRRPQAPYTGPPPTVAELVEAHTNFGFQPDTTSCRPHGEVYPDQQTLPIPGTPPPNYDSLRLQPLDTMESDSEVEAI
T1 sequence (Q9WU39 1-655): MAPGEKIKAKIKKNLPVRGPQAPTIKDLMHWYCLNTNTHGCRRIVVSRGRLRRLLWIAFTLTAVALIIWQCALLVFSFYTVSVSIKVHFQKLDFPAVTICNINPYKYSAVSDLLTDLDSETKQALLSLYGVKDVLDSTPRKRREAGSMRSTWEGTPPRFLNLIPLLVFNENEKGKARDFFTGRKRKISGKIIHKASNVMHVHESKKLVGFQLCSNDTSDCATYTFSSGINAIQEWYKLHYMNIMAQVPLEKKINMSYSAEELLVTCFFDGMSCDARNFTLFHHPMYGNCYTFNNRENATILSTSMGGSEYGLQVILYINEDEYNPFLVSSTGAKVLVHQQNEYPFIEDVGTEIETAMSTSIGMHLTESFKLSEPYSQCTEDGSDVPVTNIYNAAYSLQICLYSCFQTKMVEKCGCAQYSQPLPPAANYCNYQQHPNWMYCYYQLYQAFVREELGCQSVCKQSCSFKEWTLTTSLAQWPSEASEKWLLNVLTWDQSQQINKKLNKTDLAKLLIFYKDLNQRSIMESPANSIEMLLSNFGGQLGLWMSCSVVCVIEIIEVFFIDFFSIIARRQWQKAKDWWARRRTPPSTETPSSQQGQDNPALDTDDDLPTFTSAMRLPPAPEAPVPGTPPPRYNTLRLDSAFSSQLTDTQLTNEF
Nature of the test: Ussing chamber: inhibition of amiloride sensitive short circuit current (I_sc) in M-1 cells. The settings on record: mouse kidney M-1 cells. It counts as cell-based. In outline:
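Mouse kidney M-1 cells grown 10-12 days on transwell filters with 5 μM dexamethasone; I_sc recorded under voltage clamp at 37° C in Caco-2 transport buffer. Compounds added apically at 3 μM or 1-3-10 μM; 3 μM apical amiloride added at the end defines the amiloride-sensitive current; results as % inhibition of amiloride effect or IC50.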

The term IC50 denotes the concentration that gives 50% inhibition. A high value points to weaker potency in that assay. `NC(=NC(=O)c1nc(Cl)c(N)nc1N)NC1CCN(Cc2ccc(-n3cc(COCC(CO)(CO)CO)nn3)cc2)CC1` [Example 3.19] gave an IC50 of 0.008 µM.

In turn, `COc1ccc(CCN2CCC(NC(N)=NC(=O)c3nc(Cl)c(N)nc3N)CC2)cc1` [Example 1.19] came in with an IC50 of 0.012 µM. In turn, `CC[N+](CC)(CC)Cc1ccc(CCn2cc(-c3cccc(CN4CCC(NC(N)=NC(=O)c5nc(Cl)c(N)nc5N)CC4)c3)nn2)cc1` [Example 3.38] showed an IC50 of 0.001 µM. The result for `NC(=NC(=O)c1nc(Cl)c(N)nc1N)NC1CCN(Cc2ccc(C(=O)NCCOCCOCCOCCn3cc(CN4CCNCC4)nn3)cc2)CC1` [Example 3.10] reads 0.023 µM. The result for `CCOC(=O)c1ccc(=O)n(-c2ccc(CN3CCC(NC(N)=NC(=O)c4nc(Cl)c(N)nc4N)CC3)cc2)c1` [Example 1.16] reads 0.017 µM; that for `COC(=O)c1cccc(CN2CCC(NC(N)=NC(=O)c3nc(Cl)c(N)nc3N)CC2)c1` [Example 1.36], 0.003 µM; that for `CN(C)Cc1cn(-c2ccc(CN3CCC(NC(N)=NC(=O)c4nc(Cl)c(N)nc4N)CC3)cc2)nn1` [Example 3.15], 0.002 µM.

Regarding `N/C(=N\C(=O)c1nc(Cl)c(N)nc1N)NC1CCN(Cc2ccc(C(=O)O)cc2)CC1` [Example 1.51], the IC50 was found to be 0.023 µM. In the case of `NC(=NC(=O)c1nc(Cl)c(N)nc1N)NC1CCN(Cc2ccc(CCn3cc(COc4cccc(C(=O)NCCOCCO)c4)nn3)cc2)CC1` [Example 3.3] it was 0.024 µM. The result for `NC(=NC(=O)c1nc(Cl)c(N)nc1N)NC1CCCN(Cc2ccccc2)CC1` (stereo not drawn) [Example 1.22] reads 0.014 µM; that for `NC(=NC(=O)c1nc(Cl)c(N)nc1N)NC1CCN(Cc2ccc(C(=O)NCCCn3ccnc3)cc2)CC1` [Example 1.23], 0.002 µM; that for `CN(Cc1cn(CCc2ccc(CN3CCC(NC(N)=NC(=O)c4nc(Cl)c(N)nc4N)CC3)cc2)nn1)C(=O)CCNCCOCCOCCOCCOC(c1ccccc1)(c1ccccc1)c1ccccc1` [Example 3.6], 0.001 µM. The result for `N/C(=N\C(=O)c1nc(Cl)c(N)nc1N)NC1CCN(Cc2ccc(B(O)O)cc2)CC1` [Example 1.15] reads 0.007 µM; that for `NC(=NC(=O)c1nc(Cl)c(N)nc1N)NC1CCN(Cc2cccc(CC(=O)O)c2)CC1` [Example 8.10], 0.024 µM; that for `NC(=NC(=O)c1nc(Cl)c(N)nc1N)NC1CCN(Cc2ccc(C(=O)OCCCCc3cn(CCOCCOCCOCCO)nn3)cc2)CC1` [Example 3.42], 0.01 µM. Take `COc1cc(C(=O)O)ccc1CN1CCC(NC(N)=NC(=O)c2nc(Cl)c(N)nc2N)CC1` [Example 8.9]: the half-maximal inhibitory concentration (IC50) turned out to be 0.074 µM. In the case of `NC(=NC(=O)c1nc(Cl)c(N)nc1N)NC1CCN(Cc2ccc(OCc3cn(CCOCCOCCOCCNC(=O)c4cc(OCCOCCOCCO)cc(OCCOCCOCCO)c4)nn3)cc2)CC1` [Example 5.8] it was 0.052 µM; in that of `[N-]=[N+]=NCCOCCOCCOCCn1cc(-c2ccc(CN3CCC(NC(N)=NC(=O)c4nc(Cl)c(N)nc4N)CC3)cc2)nn1` [Example 3.32], 0.025 µM; in that of `COC(=O)C(c1ccccc1)N1CCC(NC(N)=NC(=O)c2nc(Cl)c(N)nc2N)CC1` (stereo not drawn) [Example 1.37], 0.017 µM. The result for `CN(Cc1cn(-c2ccc(CN3CCC(NC(N)=NC(=O)c4nc(Cl)c(N)nc4N)CC3)cc2)nn1)C(=O)CCNCCOCCOCCOCCOC(c1ccccc1)(c1ccccc1)c1ccccc1` [Example 3.20] reads 0.001 µM; that for `NC(=NC(=O)c1nc(Cl)c(N)nc1N)NC1CCN(Cc2ccc(-n3cc(C(=O)O)ccc3=O)cc2)CC1` [Example 8.4], 0.21 µM.
